SMILES strings stand for the structures.

For this assay, the system named is PMS1. Briefly: Mini-Gene Reporter Assay—PMS1 (firefly luciferase mini-gene reporter transiently transfected into HEK293 cells). The following applies: Homo sapiens; at 5 uM; mini-gene firefly luciferase reporter in HEK293 cells; read-out: PMS1 % Effect at 5 uM. The assay is classed as cell-based. Put shortly: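 Luminescence (RLU) read-out of exon inclusion: compound dilutions, tested in duplicate, act on transiently transfected HEK293 cells carrying a firefly luciferase reporter fused downstream of the PMS1 skipped-exon region. Potency derived by Levenberg-Marquardt curve fitting, with percent effect at 5 μM.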

Consider `CCOc1cn2nc(C)cc2cc1C(=O)Nc1cnc(NCCC2CC(F)(F)CN2)nc1` (centres unmarked) [Compound 567], for which the activation at 5 µM was < 50%. For the compound `CCOc1cn2nc(C)cc2cc1C(=O)Nc1cnc(N2CCC(N)(c3cccc(F)c3)C2)nc1` (centres unmarked) [Compound 568], the activation at 5 µM was < 50%. Under `CCOc1cn2nc(C)cc2cc1C(=O)Nc1cnc(NCC(N)c2cc(F)cc(Cl)c2)nc1` (centres unmarked) [Compound 569] stands < 50%.

For `CCOc1cn2nc(C)cc2cc1C(=O)Nc1cnc(NCC(N)c2ccc(F)cc2)nc1` (centres unmarked) [Compound 570], the activation at 5 µM was < 50%.

Take `CCOc1cn2nc(C)cc2cc1C(=O)Nc1cnc(N2CC(N)C(C)(C)C2)nc1` (centres unmarked) [Compound 571]: the activation at 5 µM is < 50%. The figure for `CCOc1cn2nc(C)cc2cc1C(=O)Nc1cnc(N2CCC3(CNCCO3)C2)nc1` (centres unmarked) [Compound 572] is < 50%. The figure for `CCOc1cn2nc(C)cc2cc1C(=O)Nc1cnc(N2CCCC(C)(CN)C2)nc1` (centres unmarked) [Compound 573] is < 50%; for `CCOc1cn2nc(C)cc2cc1C(=O)Nc1cnc(N2CCCC2CNC)nc1` (centres unmarked) [Compound 574] it is < 50%; for `CCOc1cn2nc(C)cc2cc1C(=O)Nc1cnc(N(C)C[C@H]2CCCN2)nc1` [Compound 575] it is < 50%. Turning to `CCOc1cn2nc(C)cc2cc1C(=O)Nc1cnc(N(C)C[C@@H]2CCCN2)nc1` [Compound 576], the activation at 5 µM is < 50%. Under `CCOc1cn2nc(C)cc2cc1C(=O)Nc1cnc(N2CCOC3(CCNC3)C2)nc1` (centres unmarked) [Compound 577] stands < 50%; under `CCOc1cn2nc(C)cc2cc1C(=O)Nc1cnc(N2CCCC3(CCNC3)C2)nc1` (centres unmarked) [Compound 578], < 50%; under `CCOc1cn2nc(C)cc2cc1C(=O)Nc1cnc(N2CCC3(CCCN3)CC2)nc1` [Compound 579], > 75%. The figure for `CCOc1cn2nc(C)cc2cc1C(=O)Nc1cnc(N(C)CC2CCCN2)nc1` (centres unmarked) [Compound 581] is < 50%; for `CCOc1cn2nc(C)cc2cc1C(=O)Nc1cnc(N(C)CCN2CCNCC2)nc1` [Compound 582] it is < 50%; for `CCOc1cn2nc(C)cc2cc1C(=O)Nc1cnc(N(C)CC2CCNC2)nc1` (centres unmarked) [Compound 583] it is < 50%. Under `CCOc1cn2nc(C)cc2cc1C(=O)Nc1cnc(N2CCC3(CC2)CNCCO3)nc1` [Compound 584] stands < 50%; under `CCOc1cn2nc(C)cc2cc1C(=O)Nc1cnc(N2CCOC3(CCNCC3)C2)nc1` [Compound 587], < 50%. Take `CCOc1cn2nc(C)cc2cc1C(=O)Nc1cnc(NCCC2CCCCN2)nc1` (centres unmarked) [Compound 588]: the activation at 5 µM is < 50%. As to `CCOc1cn2nc(C)cc2cc1C(=O)Nc1cnc(N2C[C@H]3CNC[C@H]3C2)nc1` [Compound 590], the activation at 5 µM was > 75%. The figure for `CCOc1cn2nc(C)cc2cc1C(=O)Nc1cnc(N2CCCC(NC)C2)nc1` (centres unmarked) [Compound 591] is < 50%; for `CCOc1cn2nc(C)cc2cc1C(=O)Nc1cnc(NCCNC)nc1` [Compound 592] it is < 50%; for `CCOc1cn2nc(C)cc2cc1C(=O)Nc1cnc(NC[C@H]2CCCN2)nc1` [Compound 593] it is < 50%. Under `CCOc1cn2nc(C)cc2cc1C(=O)Nc1cnc(N2CCNCC2)nc1` [Compound 594] stands 50 to 75%; under `CCOc1cn2nc(C)cc2cc1C(=O)Nc1cnc(N2CC(N)C2)nc1` [Compound 595], < 50%; under `CCOc1cn2nc(C)cc2cc1C(=O)Nc1cnc(N2CCN[C@@H](C)C2)nc1` [Compound 596], 50 to 75%.

As for `CCOc1cn2nc(C)cc2cc1C(=O)Nc1cnc(N2CCC(N)CC2)nc1` [Compound 597], the activation at 5 µM is < 50%. Under `CCOc1cn2nc(C)cc2cc1C(=O)Nc1cnc(NCC2CCCNC2)nc1` (centres unmarked) [Compound 598] stands < 50%; under `CCOc1cn2nc(C)cc2cc1C(=O)Nc1cnc(N(C)CCNC)nc1` [Compound 599], < 50%.

The record behind these values is patent US20250066389A1, “HETEROCYCLIC AMIDES AND METHODS OF USING THE SAME” (Rgenta Therapeutics, Inc., priority 2021, published 2025).
